The source of these data is PMC7570620, “Synthesis and Evaluation of the Antitumor Activity of Novel 1-(4-Substituted phenyl)-2-ethyl Imidazole Apoptosis Inducers In Vitro” (Molecules, 2020).

For data set [1], the system named is lung and liver cancer cells. As to the kind of experiment: Preliminary in vitro antitumor activity of lead compounds I and II. Format: cell-based. To be noted: preliminary work of this paper; Figure 2. The text has this:
To identify new apoptosis-inducing candidates, we attempted to modify the structure of imidazole and its analogs. Imidazole and the related azole moiety are significant pharmacophores in various clinical drugs including antitumor agents. […] The antitumor potency of Tanshinone-IIA has been enhanced by the introduction of an imidazole moiety (Figure 1, TA12) in order to block cancer cell invasion and metastasis in vivo [16]. […] Previously, we reported a series of imidazole-fused quinoline compound I and its open-chain analogue compound II, 2-ethyl-1-phenyl-1H-imidazole (Figure 2). […] We speculated that its flexible structure caused this difference in antitumor activity. However, both their antitumor activities were not strong enough as a potent antitumor agent. So, using compound II as a lead, we designed and synthesized several structurally modified derivatives. The effects of LogP and hydrogen bonds on bioavailability were considered, and several aliphatic and aromatic amines were selected and linked to the 1-phenyl imidazole scaffold using a succinyl group as a cross-linker. This approach yielded several novel imidazole derivatives with cLogP values ranging from 1.99 to 4.34.
Figure 2 Title compounds design. Yellow: pharmacophore and Blue: aliphatic/aromatic amine. TEXT PRINTED IN THE PICTURE: I: 300 uM< IC50 < 500 uM | II: 100 uM < IC50 < 300 uM

The next data set deals with SGC-7901. In words: MTT cell viability assay, SGC-7901. Format: cell-based. The note with it: Homo sapiens, 24 h incubation, mean ± SD, n = 4. The method, then: (§1) The synthesized compounds were subjected to a cytotoxicity assay using the MTT method, as described previously. IC50 is defined as the drug concentration causing a 50% reduction in cell numbers compared to the untreated control. For screening, we evaluated the effects of the compounds on the growth of three cancer cell lines (A549, SGC-7901, and HeLa). In addition, their toxicities were tested using one normal cell line (L-02). The results are the averages of four separate measurements. MTX and 5-FU served as positive controls.
(§2) The three cancer cell lines namely the human lung cancer cell line (A549), human cervical cancer cell line (HeLa), human gastric carcinoma cell line (SGC-7901), and normal liver cell line (L-02) were acquired from the American Type Culture Collection (Manassas, VA, USA). A549 and SGC-7901 cells were routinely cultured in RPMI-1640. In addition, HeLa and L-02 cells were routinely cultured in DMEM. Media was supplemented with 10% fetal bovine serum (FBS). Cells were maintained at subconfluency at 37 °C in humidified air containing 5% CO2. The cells were monitored daily and maintained at 80% cell density. All compounds tested were dissolved in DMSO and then diluted by the culture medium before the treatment of cultured cells.
(§3) Cytotoxicity of the tested samples was measured against each cell line using the 3-(4,5-dimethylthiazol-2-yl)-2,5-diphenyltetrazolium bromide (MTT) cell viability assay (Maher et al., 2019). Cancer cells (A549, SGC-7901, and HeLa) and L-02 normal cells were harvested during the logarithmic growth phase. All cells were seeded in 96-well plates at 10^4 cells/well and were treated with 5-fluorouracil (5-FU), methotrexate (MTX), and the tested samples for 24 h at final concentrations of […]. Next, 20 µL of freshly prepared MTT (Solarbio) solution (5 mg/mL of MTT in PBS) was added to each well, and the cells were cultured for 4 h at 37 °C. The supernatants were removed and resolved with 100 µL of DMSO, and the cells were shocked for 10 min at 37 °C. The optical density of the samples was measured at 490 nm using a microplate luminometer. Cell viability was expressed as the percentage change in absorbance compared to the control values.
(Tetrazolium dyes change colour on reduction, which living cells bring about.)

The test system of data set [2] is HeLa cells. In words: Hoechst/PI double staining apoptosis analysis. Type of data set: cell-based, human. To be noted: 24 h, 4f 3.24 µM (legend: 4 µM), 5-FU 18 µM. As for the experimental part: Apoptosis and necrosis were analyzed by Hoechst/propidium iodide (CA1120, Solarbio, Beijing, China) double staining. HeLa cells were seeded in six-well plates (10^4 cells/well) and treated with IC50 concentrations of 5-FU or one of the tested derivatives for 0, 3, 6, 12, and 24 h. Next, the cells were collected and washed once in phosphate-buffered saline (PBS). The cells were then resuspended in 195 µL of binding buffer, and dual staining was performed with 3 µL of Hoechst and 3 µL of PI. Next, the cells were incubated for 15 min at room temperature in the dark. Apoptotic cells were analyzed using the EVOS FL Auto Cell Imaging System (Thermo Fisher Scientific, Shanghai, China).
(A) HeLa cells were treated with 4 µM of 4f or 18 µM of 5-FU for 0, 3, 6, 12, or 24 h and were stained using the Hoechst/PI solution. Morphology and fluorescence intensity were examined under a fluorescence microscope (magnification: ×200). (B) Quantification of the percentages of apoptotic cells. Error bars indicate the mean ± SD of three independent experiments (* p < 0.05, ** p < 0.01, and *** p < 0.001 indicate significant differences).

A further data set deals with A549. As to the kind of experiment: MTT cell viability assay, A549. Format: cell-based. The note with it: Homo sapiens, 24 h incubation, mean ± SD, n = 4. The method, then:
as §1, §2, §3

For a further data set, the system named is HeLa. In words: MTT cell viability assay, HeLa. Type of data set: cell-based. The note with it: Homo sapiens, 24 h incubation, mean ± SD, n = 4. As for the experimental part: as §1, §2, §3
The test system of the next data set is L-02. As to the kind of experiment: MTT cytotoxicity in normal cell line L-02. Format: cell-based. The note with it: for IC50: Homo sapiens, L02, normal cell line L-02, MTT; for Selectivity Index A549: IC50 in normal cells (L-02)/IC50 in tumor cells (A549); for Selectivity Index HeLa: IC50 in normal cells (L-02)/IC50 in tumor cells (HeLa); for Selectivity Index SGC-7901: IC50 in normal cells (L-02)/IC50 in tumor cells (SGC-7901). As for the experimental part:
as §1
The lack of selectivity between normal and cancer cells is one of the primary limitations of antitumor drugs. We evaluated the cytotoxicity of compounds 4c, 4e–4i, 4l, 4m, and 4q in the normal cell line L-02 to determine the selectivity index (defined as the ratio of cytotoxicity in L-02 cells compared to that in cancer cells). […] Compound 4q yielded satisfactory SI values in HeLa and SGC-7901 cells but an unsatisfactory SI value in A549 cells. […] Compound 4f was selected for the subsequent biological studies.
as §2, §3

In data set [3] the test system is HeLa cells. In words: Western blot of apoptotic proteins. Format: cell-based, human. As for the experimental part:
The results of the Western blot analysis were expressed as the relative ratio of the specific compound band compared with the internal reference.
For performing Western blot analysis, the cells were washed with PBS and lysis buffer (P0013B, Beyotime). After incubation on ice for 30 min, the homogenate was centrifuged at 12,000g for 15 min at 4 °C, and the supernatant was used for protein analysis. Protein concentration was determined using the BCA protein assay (P0012S, Beyotime, Beijing, China). Sodium dodecyl sulfate-polyacrylamide gel electrophoresis was performed using the Bio-Rad Mini-Protean Tetra System (Bio-Rad, Hercules, CA, US). The proteins on the gel were then transferred onto polyvinylidene fluoride membranes (PVDF, Millipore, Beijing, China) for 2 h at 200 mA and blocked for 2 h with 5% skim milk at room temperature to prevent nonspecific binding. The blots were probed with the indicated primary antibodies followed by horseradish peroxidase (HRP)-conjugated goat anti-rabbit or anti-mouse IgG (Beyotime). Rabbit anti-Bcl-2 and mouse anti-actin antibodies were purchased from Beyotime. Rabbit anti-Bax, anti-Caspass-3, and anti-PARP monoclonal antibodies were purchased from Cell Signaling Technology (Danvers, MA, USA).
Figure 4 Apoptotic effects of 4f on HeLa cells. (A) The effect of compound 4f on the expression levels of Bax, Bcl-2, Caspase 3, and cle-PARP in HeLa cells was analyzed using Western blotting. (B) Densitometric quantification. * p < 0.05, ** p < 0.01, and *** p < 0.001 relative to the control group (0 h). Bcl-2, B-cell lymphoma 2; Bax, […]; cle-PARP, cleaved poly ADP-ribose polymerase.
On the technique in general: In western blotting, separated proteins are transferred to a membrane and probed.

A word on the IC50: it is the point on the concentration scale where inhibition reaches its midpoint. As to `CCc1nccn1-c1ccccc1` [II, 2-ethyl-1-phenyl-1H-imidazole], in data set [1], the IC50 is 100 to 300 µM.

In the case of `O=c1[nH]cc(F)c(=O)[nH]1` [Compound 5-FU, 5-fluorouracil, reference compound], the IC50 worked out at 16.4 ± 0.88 µM in the data set on SGC-7901, 22.6 ± 2.59 µM with A549, 18.3 ± 1.52 µM in the data set on HeLa and 74.7 ± 7.85 µM in the data set with L-02. The compound further showed an apoptosis rate in the data set on HeLa cells [2] of 39.6%. Moreover, the “Selectivity Index A549” value in the data set with L-02 was 3.30. Also, the “Selectivity Index HeLa” value in the data set on L-02 is reported as 4.08. Further, the “Selectivity Index SGC-7901” value in the data set on L-02 is 4.57.

In the data set with SGC-7901, `CCc1nccn1-c1ccc(NC(=O)CCC(=O)Nc2ccc(Br)cc2)cc1` [Compound 4f, 1-(4-(3-(4-Br-Phenylcarbamoyl)propionamide)phenyl)-2-ethyl Imidazol] yielded an IC50 of 5.37 ± 0.85 µM. In addition, in the data set on HeLa cells [3] (3.24 µM, time-dependent 3–24 h), the “expression of Bcl-2” value is reported as “decreased” and the “expression of the Bax protein” value is recorded as “significantly increased”. In the data set with HeLa cells [3] (24 h after treatment, 4f 3.24 µM), the Caspase-3 expression increase is recorded as 134.3%. In the data set with HeLa cells [2], the apoptosis rate was determined as 68.2%. In the data set with A549, this compound yielded a half-maximal inhibitory concentration (IC50) of 6.6 ± 0.36 µM. In the data set with HeLa, this compound showed an IC50 of 3.24 ± 0.23 µM. In the data set on L-02, 152 ± 10.8 µM corresponded to half-maximal inhibition (IC50), the “Selectivity Index A549” value came out at 23.03, the “Selectivity Index HeLa” value came out at 46.92 and the “Selectivity Index SGC-7901” value is reported as 28.31. The “Selectivity index, tolerance of normal L-02 cells versus tumor cells” value in the data set with L-02 (range over the three tumor cell lines) is given as 23–46 fold.

By melting point is commonly meant the temperature, or range, at which the solid turns liquid. In turn, `CCc1nccn1-c1ccc(NC(=O)CCC(=O)Nc2ccc(C)cc2)cc1` [Compound 4h] showed a melting point of 200 to 202 °C. In the data set on SGC-7901, this compound registered an IC50 of 13.1 ± 3.02 µM. This compound came in with an IC50 in the data set with A549 of 32.2 ± 4.79 µM. In addition, the 50% inhibitory concentration (IC50) in the data set with HeLa turned out to be 6.31 ± 0.79 µM. Moreover, in the data set with L-02, the IC50 is 290 ± 26.6 µM, the “Selectivity Index A549” value came out at 9.00, the “Selectivity Index HeLa” value is 45.94 and the “Selectivity Index SGC-7901” value came to 22.10.
